Marks after values point to notes of the source that are not given here.

Test [1] deals with rats after spinal nerve ligature. Kind of test: Mono-neuropathic pain after spinal nerve ligature (Chung model), electronic von Frey. Format: in vivo, rat. Here is the method: (§1) Sprague Dawley rats (140-160 g body weight) were used for the following animal models. Sprague Dawley rats (140-160 g body weight) from a commercial breeder (Janvier, Genest St. Isle, France) were used. The animals were kept under standard conditions: light-dark rhythm (06:00 to 18:00 h light, 18:00 to 06:00 h dark), room temperature 19-23° C., relative air humidity 45-65%, air exchange 19 times per hour, air movement <0.2 m/s, free choice of tap water and standard feed, Macrolon Type 4 cages with 5 animals per cage. The solutions of the test substances and/or vehicles (10% […], 5% Cremophor EL, 5% glucose) were administered intravenously.
Under pentobarbital narcosis (Narcoren®, […] i.p., Merial GmbH, Hallbergmoos, Germany), the L5, L6 spinal nerves were firmly bound. The left L5 and L6 spinal nerves were exposed by removing a piece of paravertebral muscle and a portion of the left spinal process of the L5 lumbar vertebral body. The L5 and L6 spinal nerves were carefully isolated and bound with a firm ligature (NC silk, black, USP 5/0, metric 1, Braun Melsungen AG, Melsungen, Germany) (Kim and Chung, An experimental model for peripheral neuropathy produced by segmental spinal nerve ligature in the rat, Pain, 50, 1992, 355-363). After haemostasis was determined, the muscle and adjacent tissue were sutured and the wound closed by metal clamps. After a one-week recovery period the animals were placed in cages with a wire base closed to the top by a plastic hood for measurement of the mechanical allodynia. The animals were kept in this cage until their explorative behaviour had decreased.
The threshold for the tactile allodynia was measured by means of an electronic von Frey anaesthesiometer (Somedic AB, Malmö, Sweden). The animals were randomly divided into groups of 10 animals. Each group received an individual dose of test substance or vehicle and the measurements were conducted 0.5 h before application and at various times after intravenous administration. Both the ipsi- and the contra-lateral rear paw were tested. The median of five stimulations gave a measured data point. The data were determined as % maximum possible effect (% MPE) from the pre-tests of the Chung individual animals (=0% MPE) and the test values of an independent sham control group (=100% MPE). The effect of the test substance and the vehicle was calculated for each measurement time (i.e. 0.5, 1 and 3 h after application) as inter-individual % MPE value. […] The corresponding threshold values are given in gram (mean±SEM).

For test [2], the system named is rats. Kind of test: Tail-flick (hot beam) test in rats. The format is in vivo, rat. Here is the method:
as §1
The analgesic efficacy of the test compounds was examined in the hot beam (tail flick) test in rats using the method of D'Amour and Smith (J. Pharm. Exp. Ther. 1941, 72, 74-79). The time from switching on the lamp (8V/50 W) to the sudden flicking away of the tail from the hot beam (pain latency) was measured by means of a semiautomatic apparatus (tail-flick Analgesiemeter Type 50/08/1.bc, Labtec, Dr. Hess, Germany). The lamp intensity was adjusted before conducting the experiments so that the time from switching on the lamp to the sudden flicking away of the tail (pain latency) amounted to 3-5 seconds in untreated animals. The lamp was automatically switched off after 12 seconds to avoid tissue damage to the rat's tail. The pain latency was measured 10, 20, 40 and 60 min after intravenous administration. The analgesic effect was determined as increase in pain latency (% MPE) according to the following formula: […]
In this case, T0 is the latency time before and T1 the latency time after substance application, T2 is the maximum exposure time (12 sec). Results of the analgesia study in the tail-flick test in rats:
The following experiments of Example 2 relate to binding studies and the analgesic efficacy of the compounds with dual mode of action according to the invention. The experiments comprise the determination of the (f)Ki value at the TPRV1 receptor, the Ki value at the μ-opioid receptor and the hypothermia assay in mice. The tail-flick test for the compounds [1], [4], [7] and [10] according to the invention was conducted in a similar manner to the above-described method (cf. Example 1, experiment 1).

Test [3] deals with rats. Kind of test: Tail-flick (hot beam) test in rats. The format is in vivo, rat. The source holds these as a separate data set.
For test [4], the target named is T1, vanilloid receptor 1 (VR1/TRPV1) (Homo sapiens, UniProt Q8NER1).
T1 construct: expressed in transfected cells; host or cells: CHO K1 cells (ECACC), stably transfected
Description: FLIPR capsaicin assay. Format: cell-based, human or rat. The conditions noted are these: functional Ki, capsaicin 100 nM, VR1-transfected CHO K1 cells, modified Cheng-Prusoff; read-out: f(Ki) (VR1). The source says:
(§2) The agonist or antagonist effect of substances can be determined at the vanilloid receptor 1 (VR1/TRPV1) of the human and rat species with the assay described below. Accordingly, the Ca^2+ influx through the channel is quantified by means of a Ca^2+-sensitive dye (Fluo-4, Molecular Probes Europe BV, Leiden, The Netherlands) in the fluorescent imaging plate reader (FLIPR, Molecular Devices, Sunnyvale, USA).
(§3) Chinese hamster ovary cells (CHO K1 cells, ECACC, England) are stably transfected with human or rat VR1 cDNA. For functional studies these cells are plated onto poly-D-lysine-coated black 96-hole plates with a clear base (BD Biosciences, Heidelberg, Germany) in a density of 25 000 cells/cavity. The cells are incubated overnight at 37° C. with 5% CO2 in culture medium (nutrient mixture Ham's F12, Gibco Invitrogen GmbH, Karlsruhe, Germany) with 10% vol. FBS (foetal bovine serum, Gibco Invitrogen GmbH, Karlsruhe, Germany) and 18 μg/ml of L-proline (Gibco Invitrogen GmbH, Karlsruhe, Germany). On the following day, the cells are laden with 2 μM Fluo-4 and 0.01% vol. Pluronic F127 (Molecular Probes Europe BV, Leiden, The Netherlands) in HBSS buffer (Hank's buffered saline solution, Gibco Invitrogen GmbH, Karlsruhe, Germany) for 30 min at 37° C. The plates are then washed 3 times in HBSS buffer and after further incubation for 15 minutes at room temperature are placed in the FLIPR for the Ca^2+ measurement. In this case, the Ca^2+-dependent fluorescence is measured before and after the addition of substances (λex=488 nm, λem=540 nm). Quantification occurs as a result of the measurement of the highest fluorescence intensity (FC, fluorescence counts) over time.
The FLIPR protocol consists of 2 substance additions. Test substances (10 μM) are firstly pipetted onto the cells and the Ca^2+ influx is compared to the control (capsaicin 10 μM). This gives the specification in % activation in relation to the Ca^2+ signal after adding 10 μM of capsaicin. After 5 minutes incubation 100 nM of capsaicin are applied and the influx of Ca^2+ likewise determined. Desensitising agonists and antagonists lead to a suppression of the Ca^2+ influx. Inhibition values [%] are calculated in comparison to the maximum achievable inhibition with a saturating concentration of […] or another reference antagonist. The test substance is added in different concentrations to determine the IC50 and functional Ki value ((f)Ki). Triple determinations (n=3) are conducted and these are repeated in at least one further independent experiment (N>=2). A capsaicin dose action curve is generated to incorporate the thus determined EC50 values into the associated (f)Ki determination. EC50/IC50 values are calculated using ‘Prism4’ software from GraphPad Software™ or with XLfit4™ (ID Business Solutions Ltd.). (f)Ki values are calculated in accordance with the modified Cheng-Prusoff equation (Cheng, Prusoff; Biochem. Pharmacol. 22, 3099-3108, 1973). Testing for non-specific inhibition of the fluorescence as a result of the substances is conducted by activating wild type CHO K1 cells incubated with the same test substances with ATP (10 μM final concentration).

For the next test, the target named is T2, human VR1 (Homo sapiens, UniProt Q8NER1).
T2 construct: expressed in transfected cells; host or cells: CHO K1 cells (ECACC), stably transfected
Description: FLIPR pH assay. The format is cell-based.
From the text: as §2, §3
In the pH assay, HBSS that now contains 60 mM MES instead of capsaicin is applied to human VR1-transfected CHO K1 cells (adjusted pH value of the addition solution is 4.95). Percentage inhibition and IC50 values are raised and evaluated as already described for the capsaicin test.

Test [5] addresses T3, human recombinant μ-opioid receptor (Homo sapiens, UniProt P35372).
T3 construct: expressed in transfected cells; host or cells: CHO-K1 cells (membrane preparation)
Kind of test: Ki value at the μ-opioid receptor (Experiment 4). Format: binding.

Where [6] appears, read: Morphine 1.0 mg/kg i.v. group, Control (pre-test 0.5 h before application).
Setting [7] is: Morphine 1.0 mg/kg i.v., 30 min.
The mark [8] stands for this setting: Morphine 1.0 mg/kg i.v., 60 min.
[9] abbreviates: Morphine 1.0 mg/kg i.v., 180 min.
The mark [10] stands for this setting: Morphine 2.0 mg/kg i.v. group, Control (pre-test 0.5 h before application).
[11] abbreviates: Morphine 2.0 mg/kg i.v., 30 min.
The mark [12] stands for this setting: Morphine 2.0 mg/kg i.v., 60 min.
Where [13] appears, read: Morphine 2.0 mg/kg i.v., 180 min.
[14] abbreviates: AMG-9810 2.15 mg/kg i.v. group, Control (pre-test 0.5 h before application).
The mark [15] stands for this setting: AMG-9810 2.15 mg/kg i.v., 30 min.
Setting [16] is: AMG-9810 2.15 mg/kg i.v., 60 min.
Setting [17] is: AMG-9810 2.15 mg/kg i.v., 180 min.

T2 sequence (Q8NER1 whole entry): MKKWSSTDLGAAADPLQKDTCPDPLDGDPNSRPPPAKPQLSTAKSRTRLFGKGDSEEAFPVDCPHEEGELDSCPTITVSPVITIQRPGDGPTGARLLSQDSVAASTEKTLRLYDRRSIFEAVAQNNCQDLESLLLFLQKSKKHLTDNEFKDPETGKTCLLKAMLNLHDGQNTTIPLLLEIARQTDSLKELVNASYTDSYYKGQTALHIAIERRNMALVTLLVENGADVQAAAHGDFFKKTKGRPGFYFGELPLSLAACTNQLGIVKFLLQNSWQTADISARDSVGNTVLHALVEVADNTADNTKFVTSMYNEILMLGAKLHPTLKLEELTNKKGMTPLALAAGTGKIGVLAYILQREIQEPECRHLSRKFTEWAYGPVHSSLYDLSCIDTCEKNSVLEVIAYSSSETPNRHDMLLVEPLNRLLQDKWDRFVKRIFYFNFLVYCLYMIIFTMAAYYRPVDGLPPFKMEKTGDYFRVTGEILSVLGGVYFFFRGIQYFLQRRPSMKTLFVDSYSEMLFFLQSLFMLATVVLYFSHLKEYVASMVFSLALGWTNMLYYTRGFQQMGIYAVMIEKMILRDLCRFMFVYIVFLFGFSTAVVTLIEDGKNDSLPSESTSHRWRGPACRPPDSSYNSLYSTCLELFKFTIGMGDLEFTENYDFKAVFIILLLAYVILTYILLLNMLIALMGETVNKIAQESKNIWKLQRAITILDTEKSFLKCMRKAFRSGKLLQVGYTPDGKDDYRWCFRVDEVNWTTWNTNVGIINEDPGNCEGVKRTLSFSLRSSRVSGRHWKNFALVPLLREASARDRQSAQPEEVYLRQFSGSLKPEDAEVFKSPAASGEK
T1 sequence (Q8NER1 whole entry): as above
T3 sequence (P35372 whole entry): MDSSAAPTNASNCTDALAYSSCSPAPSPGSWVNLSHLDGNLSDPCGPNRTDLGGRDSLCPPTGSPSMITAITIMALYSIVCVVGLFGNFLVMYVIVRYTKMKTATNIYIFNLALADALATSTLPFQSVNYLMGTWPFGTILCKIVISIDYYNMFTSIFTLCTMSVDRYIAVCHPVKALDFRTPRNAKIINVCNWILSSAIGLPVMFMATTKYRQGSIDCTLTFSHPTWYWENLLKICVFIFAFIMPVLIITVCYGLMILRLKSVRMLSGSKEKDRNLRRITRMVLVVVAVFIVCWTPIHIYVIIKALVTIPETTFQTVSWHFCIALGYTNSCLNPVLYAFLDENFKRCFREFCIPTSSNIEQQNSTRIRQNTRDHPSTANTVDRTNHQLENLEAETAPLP

For the molecule `CN1CC[C@]23c4c5ccc(O)c4O[C@H]2[C@@H](O)C=C[C@H]3[C@H]1C5` [Morphine, morphine], the “pull-away threshold value, contra-lateral rear paw, mean” value was found to be 56.81 gram in test [1] (setting [6]); 67.87 gram in test [1] (setting [7]); 60.95 gram in test [1] (setting [8]); 54.63 gram in test [1] (setting [9]); 58.39 gram in test [1] (setting [10]); 82.83 gram in test [1] (setting [11]). In addition, the “pull-away threshold value, contra-lateral rear paw, mean” value was 74.68 gram in test [1] (setting [12]) and 59.93 gram in test [1] (setting [13]). The “pull-away threshold value, ipsi-lateral rear paw, mean” value in test [1] (setting [6]) is recorded as 23.63 gram; in test [1] (setting [7]), 32.13 gram; in test [1] (setting [8]), 27.65 gram; in test [1] (setting [9]), 30.67 gram; in test [1] (setting [10]), 24.37 gram; in test [1] (setting [11]), 48.44 gram. For the same molecule, the “pull-away threshold value, ipsi-lateral rear paw, mean” value in test [1] (setting [12]) was determined as 44.87 gram; in test [1] (setting [13]), 39.19 gram. The “efficacy (conclusion)” value in test [1] (combination of two threshold doses of the same opioid, pull away increased on ipsi- and contra-lateral paw) is on record as “additive antinociceptive efficacy”. The “% MPE (increase in pain latency), mean” value in the test on rats [2] (Morphine 0.4 mg/kg i.v., 10 min) was determined as 26.51 % MPE; with rats [2] (Morphine 0.4 mg/kg i.v., 60 min), 4.23 % MPE; in the test on rats [3] (Morphine 0.4 mg/kg i.v., 20 min), 23.62 % MPE; in the test on rats [3] (Morphine 0.4 mg/kg i.v., 40 min) it was 14.1 % MPE; in the test with rats [3] (Morphine 0.8 mg/kg i.v., 10 min), 45.31 % MPE; in the test with rats [3] (Morphine 0.8 mg/kg i.v., 20 min), 45.02 % MPE. The “% MPE (increase in pain latency), mean” value in the test on rats [3] (Morphine 0.8 mg/kg i.v., 40 min) was 25.86 % MPE; with rats [3] (Morphine 0.8 mg/kg i.v., 60 min), 14.62 % MPE. For the same molecule, the “antinociceptive efficacy (conclusion)” value in the test on rats [2] (combination of two threshold doses of the same opioid) is listed as “additive antinociceptive efficacy”.
Consider `CC(C(=O)NCc1ccc(C(F)(F)F)nc1N1CCC(c2ccccc2)(N(C)C)CC1)c1ccc(NS(C)(=O)=O)c(F)c1` (stereo not drawn) [[1], N-((2-(4-(dimethylamino)-4-phenylpiperidin-1-yl)-6-(trifluoromethyl)pyridin-3-yl)methyl)-2-(3-fluoro-4-(methylsulfonamido)phenyl)propanamide], for which the figures for the inhibitory constant (Ki) in test [4] and in test [5] were 31.3 nM and 46 nM, respectively. Further, the concentration for half-maximal inhibition (IC50) (as a rule, the point on the concentration scale where inhibition reaches its midpoint) on human VR1 stood at 806 nM. Besides, the “Tail-Flick [% MPE]” value in the test with rats [3] (dosage 1 mg/kg p.o.) was 50%^2) % MPE.
With `CC(C)(C)c1ccc(/C=C/C(=O)Nc2ccc3c(c2)OCCO3)cc1` [AMG-9810], the “pull-away threshold value, contra-lateral rear paw, mean” value in test [1] (setting [14]) was 57.79 gram; in test [1] (setting [15]), 55.91 gram; in test [1] (setting [16]) it was 52.4 gram; in test [1] (setting [17]), 57.38 gram. In addition, the “pull-away threshold value, ipsi-lateral rear paw, mean” value is 23.23 gram in test [1] (setting [14]), 32.27 gram in test [1] (setting [15]), 31.18 gram in test [1] (setting [16]) and 26.94 gram in test [1] (setting [17]). Also, the “% MPE (increase in pain latency), mean” value in the test with rats [2] (AMG-9810 10 mg/kg i.v., 10 min) is recorded as 26.36 % MPE; in the test on rats [2] (AMG-9810 10 mg/kg i.v., 20 min), 11.44 % MPE; with rats [2] (AMG-9810 10 mg/kg i.v., 60 min) it was −4.06 % MPE; in the test on rats [3] (AMG-9810 10 mg/kg i.v., 40 min), 4.38 % MPE.

(Values after US20090286831A1, “VR1 Receptor Ligands and u-Opioid Receptor Ligands for the Treatment of Pain” (priority 2006, published 2009).)
